Columns and labels:
[1] = Glass transition temperature by Differential Scanning Calorimetry (DSC); type: physicochemical; conditions: dry amorphous lisinopril
Protocol: Differential Scanning Calorimetry (DSC) was performed on approximately 0.5-3 mg sample, using a Mettler DSC820 instrument, according to standard methods, for example those described in Hohne et al. (1996) Differential scanning Calorimetry, Springer, Berlin.

[2] = Glass transition temperature by Thermal Mechanical Analysis (TMA); type: physicochemical; conditions: heating rate 10° C./min, 30-160° C.
Protocol: The method involves compressing 140 mg of material in a punch and die (3 mm) to 2 KN. The compressed pellet was then placed on the TMA and the 1.1 mm probe placed on the top face. A heating rate of 10° C./min was used and the sample was heated from 30-160° C.

[3] = cited from earlier work

Row | glass transition temperature (Tg) by DSC [1] [°C] | glass transition temperature by TMA [2] [°C] | Compound | effective half-life of accumulation ([3]; multiple dosing) | time to peak serum concentrations ([3]; oral administration) [h]
1 | 125 | 129 | NCCCC[C@H](NC(CCc1ccccc1)C(=O)O)C(=O)N1CCC[C@H]1C(=O)O (stereo partly drawn) [amorphous lisinopril, (S)-1-[N^2-(1-carboxy-3-phenylpropyl]-L-lysyl]-L-proline] | – | –
2 | – | – | NCCCC[C@H](NC(CCc1ccccc1)C(=O)O)C(=O)N1CCC[C@H]1C(=O)O (stereo partly drawn) [lisinopril, (S)-1-[N^2-(1-carboxy-3-phenylpropyl]-L-lysyl]-L-proline] | about 12.6 hours | ≤ 7

Source: US6627760B1, “Amorphous compound” (AstraZeneca AB, priority 2001, dated 2003)
